# Measurements published in patent publication EP0565593B1, “REDUCING PESTICIDAL INTERACTIONS IN CROPS” (priority 1990, dated 1992).
# Where “and” joins values, the source holds several entries; their conditions need not be identical. Equal entries are not always repeated. Where two headings read alike, the source gives them in different places.
# Assays:
# Shattercane (SHCA) = format: in vivo
# Velvetleaf (VELE) = format: in vivo, Abutilon theophrasti
# Giant foxtail (GIFT) = experiment: whole plant or invertebrate; format: in vivo; conditions: in vivo
# [1] = Antidote 8.96 + Biocide No. 1 8.96 Kg/Ha PPI, Herb. No. 8 0.07, 5 DAP, before herbicide application
# [2] = Antidote 8.96 + Biocide No. 1 8.96 Kg/Ha PPI, Herb. No. 8 0.07 POE, 13 DAP
# [3] = Antidote 8.96 + Biocide No. 1 8.96 Kg/Ha PPI, Herbicide No. 7 0.28 POE, 13 days after planting
# [4] = Herb. […], 5 DAP, before herbicide application
# [5] = Herb. […], 13 DAP, after herbicide application
# [6] = Table 14: Herbicide No. 7 (ACCENT) 0.84 Kg/Ha POE + Biocide No. 2 8.96 Kg/Ha PPI + antidote 8.96 Kg/Ha PPI, 13 days after planting, 8 days after herbicide
# [7] = […], 13 days after planting, 8 days after herbicide
# [8] = […], observed 10 days after herbicide application
# [9] = Antidote 4.48 + Biocide No. 1 8.96 Kg/Ha PPI, Herb. No. 8 0.07, 5 DAP, before herbicide application
# [10] = Antidote 4.48 + Biocide No. 1 8.96 Kg/Ha PPI, Herb. No. 8 0.07 POE, 13 DAP
# [11] = Antidote 4.48 + Biocide No. 1 8.96 Kg/Ha PPI, Herbicide No. 7 0.28 POE, 13 days after planting
# [12] = Table 14: Herbicide No. 7 (ACCENT) 0.84 Kg/Ha POE + Biocide No. 2 8.96 Kg/Ha PPI + antidote 4.48 Kg/Ha PPI, 13 days after planting, 8 days after herbicide
SMILES,% Inhibition 5 DAP SHCA (Shattercane (SHCA); [4]),% Inhibition SHCA (Shattercane (SHCA); [7]),% Inhibition SHCA (Shattercane (SHCA); [8]),% Inhibition 5 DAP SHCA (Shattercane (SHCA); in vivo),% Inhibition 13 DAP SHCA (Shattercane (SHCA); in vivo),% Inhibition SHCA (Shattercane (SHCA); in vivo),% Inhibition 5 DAP VELE (Velvetleaf (VELE); [4]),% Inhibition VELE (Velvetleaf (VELE); [7]),% Inhibition VELE (Velvetleaf (VELE); [8]),% Inhibition 5 DAP VELE (Velvetleaf (VELE); in vivo),% Inhibition 13 DAP VELE (Velvetleaf (VELE); in vivo),% Inhibition GIFT (Giant foxtail (GIFT)),% Inhibition 5 DAP Corn (Corn; [4]),% Inhibition Corn (Corn; [7]),% Inhibition Corn (Corn; [8]),% Inhibition 5 DAP Corn (Corn; in vivo),% Inhibition 13 DAP Corn (Corn; in vivo),further results
CC(N=C1SCC(=C(Cl)Cl)S1)c1ccccc1 (stereo not shown) [compound 4],0%,90%,65%,30%,65%,70% and 55% and 60% and 45%,0%,70%,80%,0%,90%,50% and 65% and 60% and 90% and 55%,0%,25%,65%,15%,30%,% Inhibition 5 DAP SHCA (Shattercane (SHCA); [1]): 10%; % Inhibition 13 DAP SHCA (Shattercane (SHCA); [2]): 85%; % Inhibition SHCA (Shattercane (SHCA); [3]): 75%; % Inhibition 13 DAP SHCA (Shattercane (SHCA); [5]): 90%; % Inhibition SHCA (Shattercane (SHCA); [6]): 70%; % Inhibition 5 DAP VELE (Velvetleaf (VELE); [1]): 0%; % Inhibition 13 DAP VELE (Velvetleaf (VELE); [2]): 90%; % Inhibition VELE (Velvetleaf (VELE); [3]): 70%; % Inhibition VELE (Velvetleaf (VELE); [6]): 65%; % Inhibition 5 DAP Corn (Corn; [1]): 10%; % Inhibition 13 DAP Corn (Corn; [2]): 60%; % Inhibition Corn (Corn; [3]): 50%; % Inhibition Corn (Corn; [6]): 15%
Clc1cc(Cl)nc(-c2ccccc2)n1 [compound 31],0%,85%,65%,20%,80%,85% and 50% and 60% and 45%,0%,65%,80%,0%,85%,55% and 80% and 85% and 75% and 95% and 60%,0%,30%,70%,15%,65%,"% Inhibition 5 DAP SHCA (Shattercane (SHCA); [9]): 0%; % Inhibition 13 DAP SHCA (Shattercane (SHCA); [10]): 80%; % Inhibition SHCA (Shattercane (SHCA); [11]): 75%; % Inhibition SHCA (Shattercane (SHCA); [12]): 75%; % Inhibition 5 DAP VELE (Velvetleaf (VELE); [9]): 0%; % Inhibition 13 DAP VELE (Velvetleaf (VELE); [10]): 85%; % Inhibition VELE (Velvetleaf (VELE); [11]): 65%; % Inhibition 13 DAP VELE (Velvetleaf (VELE); [5]): 95%; % Inhibition VELE (Velvetleaf (VELE); [12]): 65%; % Inhibition 5 DAP Corn (Corn; [9]): 10%; % Inhibition 13 DAP Corn (Corn; [10]): 75%; % Inhibition Corn (Corn; [11]): 65%; % Inhibition Corn (Corn; [12]): 45%; activity in reducing corn injury (Corn; primisulfuron POE + biocides PPI, Tables 8-10): either inactive or weakly active"
